# Values of other authors in patent US11590211B2, “Systems for treating dermal inflammatory conditions” (Nuvothera, Inc., priority 2016, dated 2023).
# How the values were obtained:
# skin cells = details: reference 10
# human keratinocytes = details: through suppression of pro-inflammatory pathways; references 8, 9
# NF-κB = details: reference 5
# modified mouse tail test = details: reference 7
structure (smiles),measurement,setting,value
COc1cc(/C=C/C(=O)CC(=O)/C=C/c2ccc(O)c(OC)c2)ccc1O [curcumin],Effect on anti-apoptotic function of TNF-α in skin cells,skin cells,reverse the anti-apoptotic function of TNF-α
same,Effect on proliferation of human keratinocytes,human keratinocytes,inhibition of the proliferation
same,Activation of NF-κB,NF-κB,down-modulated
same,Activity in the modified mouse tail test,modified mouse tail test,anti-psoriatic activity
